Data set [1] can be described thus: Cmax in Sprague-Dawley rat at 2 mg/kg,iv measured at 0.083 to 24 hrs post administration by LC-MS/MS analysis. The conditions noted are these: in vivo, time 0.083-24 hrs. It is filed as ADME, organism-based.
Data set [2] is described as follows: Drug accumulation in CD-1 mouse liver assessed as fold change in drug uptake at 10 mg/kg,po measured at 0.083 to 24 hrs post administration by LC-MS/MS analysis. It is filed as ADME, organism-based. The conditions noted are these: in vivo, time 0.083-24 hrs.
The nature of data set [3]: Apparent volume of distribution at steady state in CD-1 mouse at 2 mg/kg,iv measured at 0.083 to 24 hrs post administration by LC-MS/MS analysis. It is filed as ADME, organism-based. The conditions noted are these: in vivo, time 0.083-24 hrs, read-out: Vdss(app).
The nature of data set [4]: Drug accumulation in Sprague-Dawley rat liver assessed as fold change in drug uptake at 10 mg/kg,po measured at 0.083 to 24 hrs post administration by LC-MS/MS analysis. Conditions: in vivo, time 0.083-24 hrs. It is filed as ADME, organism-based.
In the next data set the target is Cytochrome P450 2C9 (Homo sapiens, UniProt P11712). Nature of the data set: Reversible inhibition of CYP2C9 in human liver microsomes using diclofenac as substrate pre-incubated for 30 mins followed by NADPH addition and measured after 10 mins by LC-MS/MS analysis. It is filed as ADME, Microsome. (Liver microsomes are a subcellular fraction often used to study metabolism.)

The nature of data set [5]: Protein binding in mouse plasma assessed as fraction unbound at 2 uM incubated for 6 hrs by equilibrium dialysis based LC-MS/MS analysis. It is filed as ADME, cell-free. On the technique in general: Equilibrium dialysis compares concentrations on both sides of a semipermeable membrane.
A short description of data set [6]: Kinetic solubility of compound in PBS at pH 4 incubated for 24 hrs by UPLC-UV analysis. It is filed as physicochemical. The conditions noted are these: read-out: Kinetic_solubility.
Data set [7] in a line: Cmax in Sprague-Dawley rat at 10 mg/kg,po measured at 0.083 to 24 hrs post administration by LC-MS/MS analysis. It is filed as ADME, organism-based. The conditions noted are these: Sprague-Dawley, in vivo, time 0.083-24 hrs, read-out: Cmax.
The nature of data set [8]: Efflux ratio of apparent permeability from […] in human Caco-2 cells incubated for 120 mins by LC-MS/MS analysis. It is filed as ADME, cell-based. Conditions: caco-2, 2 h. In general terms: Passage across Caco-2 layers is used to estimate intestinal permeability.
A short description of data set [9]: Clearance in CD-1 mouse liver microsomes at 0.3 uM pre-incubated for 10 mins followed by NADPH addition incubated for 60 mins by LC-MS/MS analysis. It is filed as ADME, Microsome. Conditions: time 70 min, read-out: CLH.
Data set [10] in a line: Clearance in Beagle dog at 2 mg/kg,iv measured at 0.083 to 24 hrs post administration by LC-MS/MS analysis. It is filed as ADME, organism-based, Canis lupus familiaris. Conditions: in vivo, time 0.083-24 hrs.
A short description of data set [11]: Cmax in CD-1 mouse at 2 mg/kg,iv measured at 0.083 to 24 hrs post administration by LC-MS/MS analysis. It is filed as ADME, organism-based. Conditions: in vivo, time 0.083-24 hrs.
Data set [12] in a line: Half life in Sprague-Dawley rat at 2 mg/kg,iv measured at 0.083 to 24 hrs post administration by LC-MS/MS analysis. The conditions noted are these: in vivo, time 0.083-24 hrs. It is filed as ADME, organism-based.
The nature of data set [13]: AUCinfinity in CD-1 mouse at 2 mg/kg,iv measured at 0.083 to 24 hrs post administration by LC-MS/MS analysis. It is filed as ADME, organism-based. Conditions: in vivo, time 0.083-24 hrs.
The nature of data set [14]: Drug accumulation in Sprague-Dawley rat plasma assessed as fold change in drug uptake at 10 mg/kg,po measured at 0.083 to 24 hrs post administration by LC-MS/MS analysis. It is filed as ADME, organism-based. Conditions: in vivo, time 0.083-24 hrs.
Data set [15] can be described thus: Half life in CD-1 mouse at 2 mg/kg,iv measured at 0.083 to 24 hrs post administration by LC-MS/MS analysis. It is filed as ADME, organism-based. The conditions noted are these: in vivo, time 0.083-24 hrs.
Data set [16] has as its system Hepatitis B virus. Nature of the data set: Antiviral activity against AAV-Hepatitis B virus infected in human Primary hepatocyte assessed as reduction in HBV DNA level measured after 16 days by ELISA. It is filed as functional, organism-based. The conditions noted are these: 384 h.
A short description of data set [17]: Drug accumulation in Beagle dog plasma assessed as fold change in drug uptake at 10 mg/kg,po measured at 0.083 to 24 hrs post administration by LC-MS/MS analysis. It is filed as ADME, organism-based, Canis lupus familiaris. Conditions: in vivo, time 0.083-24 hrs.
The nature of data set [18]: Cardiotoxicity in Langendorff-perfused New Zealand White rabbit heart assessed as increase in QT interval upto 10 uM incubated for 45 mins by ECG analysis. It is filed as toxicity, tissue-based, Oryctolagus cuniculus. The conditions noted are these: 0.75 h.
The next data set has as its system HepG2 2.2.15. Description: Cytotoxicity against human HepG2.2.15 cells by Cell-titer Glo luminescent assay. It is filed as functional.
Data set [19] is described as follows: Apparent volume of distribution at steady state in Sprague-Dawley rat at 2 mg/kg,iv measured at 0.083 to 24 hrs post administration by LC-MS/MS analysis. It is filed as ADME, organism-based. The conditions noted are these: in vivo, time 0.083-24 hrs, read-out: Vdss(app).
For data set [20], the system named is Hepatitis B virus. Description: Antiviral activity against AAV-Hepatitis B virus infected in C57BL/6 mouse assessed as liver total HBV RNA level at 3 to 30 mg/kg,po administrated once daily for 7 days by branched DNA assay. It is filed as functional, organism-based. Conditions: dose 3-30 mg/kg, time 7.0 day.
Data set [21] is described as follows: AUCinfinity in Sprague-Dawley rat at 2 mg/kg,iv measured at 0.083 to 24 hrs post administration by LC-MS/MS analysis. It is filed as ADME, organism-based. Conditions: Sprague-Dawley, in vivo, time 0.083-24 hrs.
The nature of data set [22]: Toxicity in rat assessed as NOAEL administrated for 28 days. The conditions noted are these: in vivo, time 28 day.
The nature of data set [23]: Clearance in Sprague-Dawley rat at 2 mg/kg,iv measured at 0.083 to 24 hrs post administration by LC-MS/MS analysis. It is filed as ADME, organism-based. The conditions noted are these: in vivo, time 0.083-24 hrs.
The nature of data set [24]: Drug accumulation in CD-1 mouse plasma assessed as fold change in drug uptake at 10 mg/kg,po measured at 0.083 to 24 hrs post administration by LC-MS/MS analysis. It is filed as ADME, organism-based. The conditions noted are these: in vivo, time 0.083-24 hrs.
For a further data set, the target named is Cytochrome P450 3A4 (Homo sapiens, UniProt P08684). Description: Reversible inhibition of CYP3A4 in human liver microsomes using midazolam as substrate pre-incubated for 30 mins followed by NADPH addition and measured after 10 mins by LC-MS/MS analysis. It is filed as ADME, Microsome.
The test system of data set [25] is Hepatitis B virus. Nature of the data set: Antiviral activity against AAV-Hepatitis B virus infected in C57BL/6 mouse assessed as serum HBsAg level at 10 mg/kg,po administrated once daily for 7 days by enzyme-linked immunoassay. It is filed as functional. The conditions noted are these: time 7 day.
In data set [26] the test system is Hepatitis B virus. Nature of the data set: Antiviral activity against AAV-Hepatitis B virus infected in C57BL/6 mouse assessed as liver HBsAg level at 3 to 30 mg/kg,po administrated once daily for 7 days by enzyme-linked immunoassay. It is filed as functional, organism-based. Conditions: dose 3-30 mg/kg, time 7.0 day.
A short description of data set [27]: Cardiotoxicity in Langendorff-perfused New Zealand White rabbit heart assessed as increase in PR interval upto 10 uM incubated for 45 mins by ECG analysis. Conditions: 0.75 h. It is filed as toxicity, tissue-based, Oryctolagus cuniculus.
A further data set deals with Cytochrome P450 2D6 (Homo sapiens, UniProt P10635). Description: Reversible inhibition of CYP2D6 in human liver microsomes using dextromethorphan as substrate pre-incubated for 30 mins followed by NADPH addition and measured after 10 mins by LC-MS/MS analysis. It is filed as ADME, Microsome.
Data set [28] in a line: Cardiotoxicity in Langendorff-perfused New Zealand White rabbit heart assessed as increase in PR interval incubated for 45 mins by ECG analysis. It is filed as toxicity, tissue-based, Oryctolagus cuniculus. Conditions: 0.75 h.
Data set [29] in a line: Cardiotoxicity in Langendorff-perfused New Zealand White rabbit heart assessed as increase in QRS interval incubated for 45 mins by ECG analysis. It is filed as toxicity, tissue-based, Oryctolagus cuniculus. The conditions noted are these: 0.75 h.
A short description of data set [30]: Tmax in Sprague-Dawley rat at 10 mg/kg,po measured at 0.083 to 24 hrs post administration by LC-MS/MS analysis. It is filed as ADME, organism-based. The conditions noted are these: Sprague-Dawley, in vivo, time 0.083-24 hrs, read-out: Tmax.
Data set [31] is described as follows: Drug accumulation in Sprague-Dawley rat liver at 10 mg/kg,po measured at 0.083 to 24 hrs post administration by LC-MS/MS analysis. It is filed as ADME, organism-based. Conditions: in vivo, time 0.083-24 hrs.

Values after ≈ are worked out from the molar mass of the structure shown. Active and inactive are the calls of the source.

Cytochrome P450 3A4, sequence (P08684 whole entry): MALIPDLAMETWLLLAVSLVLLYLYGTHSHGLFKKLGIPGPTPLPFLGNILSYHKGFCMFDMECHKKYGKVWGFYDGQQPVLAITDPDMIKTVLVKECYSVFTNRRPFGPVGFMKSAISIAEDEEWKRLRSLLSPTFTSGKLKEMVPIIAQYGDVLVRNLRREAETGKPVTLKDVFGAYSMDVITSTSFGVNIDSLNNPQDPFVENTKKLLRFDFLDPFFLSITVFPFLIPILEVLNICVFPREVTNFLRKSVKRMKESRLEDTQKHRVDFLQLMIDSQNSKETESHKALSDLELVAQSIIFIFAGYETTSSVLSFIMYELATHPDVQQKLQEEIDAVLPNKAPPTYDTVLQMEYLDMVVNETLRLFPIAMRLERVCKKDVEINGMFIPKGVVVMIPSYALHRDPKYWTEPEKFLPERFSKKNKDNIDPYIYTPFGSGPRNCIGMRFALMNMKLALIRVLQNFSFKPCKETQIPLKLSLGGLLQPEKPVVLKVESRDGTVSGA
Cytochrome P450 2C9, sequence (P11712 whole entry): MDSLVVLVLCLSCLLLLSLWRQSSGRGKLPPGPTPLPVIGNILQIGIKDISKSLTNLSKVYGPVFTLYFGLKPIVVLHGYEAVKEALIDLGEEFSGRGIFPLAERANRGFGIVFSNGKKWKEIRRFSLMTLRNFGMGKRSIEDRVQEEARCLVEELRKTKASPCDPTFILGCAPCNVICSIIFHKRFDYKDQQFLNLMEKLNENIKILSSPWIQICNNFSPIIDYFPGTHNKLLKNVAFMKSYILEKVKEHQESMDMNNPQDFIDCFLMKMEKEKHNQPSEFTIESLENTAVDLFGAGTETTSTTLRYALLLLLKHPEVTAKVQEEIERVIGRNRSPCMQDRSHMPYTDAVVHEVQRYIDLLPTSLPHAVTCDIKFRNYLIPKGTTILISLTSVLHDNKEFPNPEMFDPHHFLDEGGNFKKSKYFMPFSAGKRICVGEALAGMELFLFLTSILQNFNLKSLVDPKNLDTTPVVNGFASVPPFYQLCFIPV
Cytochrome P450 2D6, sequence (P10635 whole entry, the tested form may be a part): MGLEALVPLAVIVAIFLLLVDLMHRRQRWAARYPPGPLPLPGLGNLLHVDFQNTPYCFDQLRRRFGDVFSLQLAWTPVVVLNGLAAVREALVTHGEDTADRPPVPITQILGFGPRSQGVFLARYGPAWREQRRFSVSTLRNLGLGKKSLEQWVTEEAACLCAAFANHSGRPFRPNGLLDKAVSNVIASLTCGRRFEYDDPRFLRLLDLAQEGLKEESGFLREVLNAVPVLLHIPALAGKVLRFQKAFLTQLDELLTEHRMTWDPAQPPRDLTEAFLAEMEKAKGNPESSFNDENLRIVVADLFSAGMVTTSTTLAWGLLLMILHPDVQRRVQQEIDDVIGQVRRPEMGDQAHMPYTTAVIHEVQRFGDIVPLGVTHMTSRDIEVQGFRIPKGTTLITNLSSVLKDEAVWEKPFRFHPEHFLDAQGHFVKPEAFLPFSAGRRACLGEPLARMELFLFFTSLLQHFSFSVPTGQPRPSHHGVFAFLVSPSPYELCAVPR

The Cmax is the highest concentration seen after dosing. For orientation: IC50 means the point on the concentration scale where inhibition reaches its midpoint. Higher therefore signals weaker potency. By fraction unbound is commonly meant the share of the substance not bound to proteins or other matrix. The clearance is the volume of plasma or blood freed of the substance per unit of time. What is called half-life is the time needed for the level to fall by half in the phase considered. A lower half-life goes with rapid decline. The AUC(0-inf) is the area under the concentration-time curve extrapolated to infinity. Lower therefore signals low exposure. As a reminder, the EC50 is the concentration needed to bring the measured effect to its halfway point. As usually defined, the CC50 is the concentration that lowers cell viability or growth by half. Low readings indicate greater toxicity to the cells, high ones lower toxicity to the cells. As a reminder, the NOAEL is the highest tested level that showed no adverse finding. On to `COCCCOc1cc2c(nc1OC)-c1cc(=O)c(C(=O)O)cn1[C@H](C(C)C)C2`, for which the Cmax in data set [1] came out at 3240 ng/mL; in [7] it was 1540 ng/mL; in data set [11] it was 1180 ng/mL. The “fold change (FC)” value in data set [2] was 2.6; in [4] it was 28; in data set [14] it was 8.7; in [17] it was 7.5; in [24], 8.6. The Vd in data set [3] was found to be 1.5 L/kg; in data set [19], 0.7 L/kg. Besides, the IC50 against Cytochrome P450 2C9, against Cytochrome P450 3A4 and on Cytochrome P450 2D6 was > 25 µM throughout. Further, the fraction unbound at 6 h, 2 µM in data set [5] was 0.46. For the same molecule, in [6], the solubility kinetic at 24 h is > 200 µM. Also, the Ratio in data set [8] is reported as 3.8. In addition, the microsomal CLint at 0.3 µM in data set [9] turned out to be 2 µL/min/mg. In addition, the clearance worked out at 5.4 mL/min/kg in data set [10] and 9.6 mL/min/kg in [23]. The half-life in data set [12] is 1.3 h; in [15], 0.9 h. Also, the AUC(0-inf) in [13] was 1150 ng·h/mL; in [21], 3500 ng·h/mL. In the data set on Hepatitis B virus [16], the EC50 was found to be 0.003 µM. Further, the results for the Activity entry (in data set [18]; with Hepatitis B virus [25]; in data set [27]) were “Non-Toxic”, 1.64 log10CFU and “Non-Toxic”, respectively. Moreover, the CC50 in the data set on HepG2 2.2.15 is > 50 µM. Besides, the outcome in the data set on Hepatitis B virus [20] and in the data set on Hepatitis B virus [26] was Active. Moreover, the NOAEL at 672 h in [22] is 150 mg/kg.
On to `COCCCOc1cc2c(cc1OC)-c1cc(=O)c(C(=O)O)cn1[C@H](C(C)C)C2`, for which the Cmax in data set [1] worked out at 4950 ng/mL; in [7], 1190 ng/mL; in data set [11], 1150 ng/mL. The “fold change (FC)” value is listed as < 1 in [2]; 12 in [4]; 3.4 in data set [14]; 0.6 in data set [17]; < 1 in data set [24]. Moreover, the values for the Vd in [3] and in data set [19] were 1.2 L/kg and 0.7 L/kg, respectively. Moreover, the fraction unbound at 6 h, 2 µM in data set [5] worked out at 0.5. The Activity result in [28] and in [29] was “Toxic” each time. Further, the microsomal CLint at 0.3 µM in [9] stood at 5 µL/min/mg. Also, the half-life in data set [12] is 1.3 h; in [15], 1 h. Moreover, the AUC(0-inf) in data set [13] was 1280 ng·h/mL; in [21], 4760 ng·h/mL. The molecule further returned a clearance in data set [23] of 8.6 mL/min/kg.
A word on the Tmax: it is the time from dosing to the highest level. Turning to `COCCCOc1cc2c(cc1Cl)-c1cc(=O)c(C(=O)O)cn1[C@H](C(C)C)CO2`, the Tmax in [30] is 2.1 h. Besides, the IC50 against Cytochrome P450 2C9, against Cytochrome P450 3A4 and on Cytochrome P450 2D6 was > 25 µM each time. Besides, the fraction unbound at 6 h, 2 µM in [5] worked out at 0.2. In addition, the solubility kinetic at 24 h in data set [6] was 31 µM (≈ 13.1 µg/mL). Further, the Ratio in [8] is reported as 1.5. For the same molecule, the Activity entry in data set [28] and in data set [29] was “Toxic” each time. The microsomal CLint at 0.3 µM in data set [9] came out at 5 µL/min/mg. Moreover, the clearance in data set [10] stood at 10 mL/min/kg. For the same molecule, the “fold change (FC)” value in data set [17] is < 0.1. This molecule registered a CC50 with HepG2 2.2.15 of 39 µM. In data set [31], the Ct was 29 ng/g.
